In US20260146038A1, “NOVEL SALT OF DIMETHYL-2,3-DIHYDRO-1H-INDENE DERIVATIVE AND PROCESSES FOR PREPARING THE SAME” (YUHAN CORPORATION, priority 2022, published 2026):

Assays:
Type in all cases: physicochemical
[1] = Hygroscopicity evaluation by Dynamic Vapor Sorption (DVS)
[2] = Water-solubility evaluation; settings: 20° C.
[3] = Stability test (accelerated condition); settings: for Water contents: Karl Fischer; for Water contents / HPLC purity: accelerated condition (40±2° C., 75±5% RH)
From the text: The results obtained by measuring purities (the HPLC purities) and water contents (by Karl Fischer method) are shown in Table 1 below.

[4] = Photostability test according to ICH guideline Q1B; settings: for Water contents: Karl Fischer
Procedure: Photostability tests were carried out according to ICH guideline Q1B. […] The results obtained by measuring purities (the HPLC purities) and water contents (by Karl Fischer method) are shown in Table 2 below.

| Compound | hygroscopicity (in words) ([1]; amorphous free base) | solubility [2] | stability (form changes) in the accelerated condition ([3]; amorphous free base) | HPLC purity ([4]; Initial) | Water contents ([4]; Initial) | Water contents ([4]; Light exposure (UV light for 10 hours / visible light for 40 hours)) | HPLC purity ([4]; Light exposure (UV light 20 W/m^2 for 10 hours / visible light 30,000 lux for 40 hours)) | Moisture adsorption ([1]; weight change, room temperature (about 25° C.), RH 80%, 24 hours) | difference in the water contents under the accelerated condition ([3]; 40±2° C., 75±5% RH, up to 3 months) | stability by XRD and appearance under the accelerated condition ([3]; 40±2° C., 75±5% RH, FIGS. 5 and 6) | Water contents ([3]; 1 month) | Water contents ([3]; 3 months) | Water contents ([3]; Initial) | HPLC purity ([3]; 1 month) | HPLC purity ([3]; 3 months) | HPLC purity ([3]; Initial) |
| --- | --- | --- | --- | --- | --- | --- | --- | --- | --- | --- | --- | --- | --- | --- | --- | --- |
| CC(C)Oc1ccc(-c2ccc3c(c2)CC(C)(C)C3NC(=O)O[C@@H]2CN3CCC2CC3)cc1Cl (stereo partly drawn) [Compound of WO 2021/096238, (S)-quinuclidin-3-yl (5-(3-chloro-4-isopropoxyphenyl)-2,2-dimethyl-2,3-dihydro-1H-inden-1-yl)carbamate, reference compound] | high hygroscopicity | < 10 µg/mL | low stability | – | – | – | – | – | – | – | – | – | – | – | – | – |
| ((1S,4R)-7,7-dimethyl-2-oxobicyclo[2.2.1]heptan-1-yl)methanesulfonic acid salt of (S)-quinuclidin-3-yl ((R)-5-(3-chloro-4-isopropoxyphenyl)-2,2-dimethyl-2,3-dihydro-1H-inden-1-yl)carbamate [Example 1] | – | – | – | 98.6% | 0.48% | 0.31% | 98.6% | 2.3% | ≤ 1.0% | excellent stability | 0.32% | 1.28% | 0.48% | 98.6% | 98.6% | 98.6% |
